Publication PMC2248166, “Quantitative peptide binding motifs for 19 human and mouse MHC class I molecules derived using positional scanning combinatorial peptide libraries” (Immunome Research, 2008)
Where a SMILES comes first, the peptide text is derived from it.

Each compound was assayed against HLA B*0801 (Homo sapiens, UniProt P01889, A93T/A95T/D138N/E176V/E187T/K202T/Q94N/R180D/S35A/V36M/Y33D/Y91F) (assay: biochemical).
Format: binding

SMILES | IC50 [nM]
CC(C)C[C@H](NC(=O)[C@H](Cc1ccccc1)NC(=O)[C@H](CCC(=O)O)NC(=O)[C@H](Cc1ccccc1)NC(=O)[C@H](CCCCN)NC(=O)[C@H](CCCCN)NC(=O)[C@H](CC(C)C)NC(=O)[C@H](CC(C)C)NC(=O)CN)C(=O)O [3102.0771] (H-GLLKKFEFL-OH) | 47
CC[C@H](C)[C@H](NC(=O)[C@@H]1CCCN1C(=O)[C@@H](NC(=O)[C@H](Cc1c[nH]cn1)NC(=O)[C@H](Cc1ccc(O)cc1)NC(=O)[C@H](CCCCN)NC(=O)[C@H](CCCNC(=N)N)NC(=O)[C@@H](N)Cc1ccc(O)cc1)C(C)C)C(=O)N[C@@H](CCSC)C(=O)O [3102.0573] (H-YRKYHVPIM-OH) | 62
CSCC[C@H](NC(=O)[C@H](CC(N)=O)NC(=O)[C@@H](N)CCC(=O)O)C(=O)N[C@@H](CC(C)C)C(=O)N[C@@H](CCCNC(=N)N)C(=O)N[C@@H](CO)C(=O)N[C@@H](CCSC)C(=O)N1CCC[C@H]1C(=O)N[C@H](C(=O)O)C(C)C [3102.0748] (H-ENMLRSMPV-OH) | 0.21
CC(C)C[C@H](NC(=O)[C@@H]1CCCN1C(=O)[C@H](CS)NC(=O)[C@H](CCCNC(=N)N)NC(=O)[C@H](CCCNC(=N)N)NC(=O)[C@H](CCCNC(=N)N)NC(=O)[C@H](CC(C)C)NC(=O)[C@H](Cc1ccccc1)NC(=O)[C@@H](N)CC(C)C)C(=O)O [3102.0764] (H-LFLRRRCPL-OH) | 0.13
CC[C@H](C)[C@H](NC(=O)[C@H](CCSC)NC(=O)[C@H](CC(C)C)NC(=O)[C@@H]1CCCN1C(=O)[C@@H](N)CCCNC(=N)N)C(=O)N[C@@H](Cc1ccccc1)C(=O)N[C@@H](CCSC)C(=O)N[C@@H](CO)C(=O)NCC(=O)O [3102.0609] (H-RPLMIFMSG-OH) | 12
CC[C@H](C)[C@H](NC(=O)[C@@H](N)CO)C(=O)N[C@@H](CCCCN)C(=O)N[C@@H](CO)C(=O)N[C@@H](CCCCN)C(=O)N[C@@H](CO)C(=O)N[C@@H](CCCNC(=N)N)C(=O)N[C@@H](CCCNC(=N)N)C(=O)N[C@@H](CC(C)C)C(=O)O [3102.0534] (H-SIKSKSRRL-OH) | 30
CC[C@H](C)[C@H](NC(=O)[C@H](CCCCN)NC(=O)[C@@H](NC(=O)[C@H](CCCNC(=N)N)NC(=O)[C@H](CC(C)C)NC(=O)[C@H](CC(N)=O)NC(=O)[C@H](CC(C)C)NC(=O)[C@@H](N)CO)[C@@H](C)CC)C(=O)N[C@@H](CC(C)C)C(=O)O [3102.0536] (H-SLNLRIKIL-OH) | 92
CSCC[C@H](NC(=O)[C@@H](NC(=O)[C@H](CS)NC(=O)[C@H](CCCCN)NC(=O)[C@H](CCC(N)=O)NC(=O)[C@H](CC(C)C)NC(=O)[C@H](CCCCN)NC(=O)[C@H](CC(C)C)NC(=O)[C@@H](N)CCSC)C(C)C)C(=O)O [3102.0611] (H-MLKLQKCVM-OH) | 9.3
CC(C)C[C@H](NC(=O)[C@H](CO)NC(=O)CNC(=O)[C@H](Cc1ccc(O)cc1)NC(=O)[C@H](CCCCN)NC(=O)[C@H](Cc1c[nH]cn1)NC(=O)[C@H](CCCCN)NC(=O)[C@H](CC(C)C)NC(=O)[C@@H](N)Cc1ccccc1)C(=O)O [3102.0617] (H-FLKHKYGSL-OH) | 0.14
CC[C@H](C)[C@H](NC(=O)[C@H](CC(N)=O)NC(=O)[C@H](CC(C)C)NC(=O)[C@H](CCCCN)NC(=O)[C@H](CC(N)=O)NC(=O)[C@H](CCSC)NC(=O)[C@@H](NC(=O)[C@@H](N)CC(N)=O)[C@@H](C)CC)C(=O)N[C@H](C(=O)O)C(C)C [3102.0721] (H-NIMNKLNIV-OH) | 5.7
CC[C@H](C)[C@H](NC(=O)[C@H](CO)NC(=O)[C@H](CC(C)C)NC(=O)[C@H](CC(C)C)NC(=O)[C@H](CCCNC(=N)N)NC(=O)[C@H](CCSC)NC(=O)[C@H](CCC(=O)O)NC(=O)[C@H](C)NC(=O)[C@@H](N)CO)C(=O)O [3102.0547] (H-SAEMRLLSI-OH) | 21
CC(C)C[C@H](NC(=O)CNC(=O)[C@@H](N)CC(N)=O)C(=O)N[C@H](C(=O)N[C@@H](CCCNC(=N)N)C(=O)N[C@@H](CC(C)C)C(=O)N[C@@H](CC(N)=O)C(=O)N[C@@H](C)C(=O)N[C@@H](Cc1ccccc1)C(=O)O)C(C)C [3102.0603] (H-NGLVRLNAF-OH) | 57
CC[C@H](C)[C@H](NC(=O)[C@H](CCCNC(=N)N)NC(=O)[C@H](Cc1ccc(O)cc1)NC(=O)[C@H](CCCCN)NC(=O)[C@H](CC(N)=O)NC(=O)[C@@H](N)CO)C(=O)N[C@@H](CCCCN)C(=O)N[C@@H](CO)C(=O)N[C@H](C(=O)O)C(C)C [3102.0666] (H-SNKYRIKSV-OH) | 2.7
CSCC[C@H](N)C(=O)N[C@@H](CC(C)C)C(=O)N[C@@H](CC(C)C)C(=O)N[C@@H](CCCCN)C(=O)N[C@@H](CCCCN)C(=O)N[C@@H](CC(C)C)C(=O)N[C@@H](CC(N)=O)C(=O)N[C@@H](CO)C(=O)N[C@@H](Cc1ccccc1)C(=O)O [3102.0753] (H-MLLKKLNSF-OH) | 0.57
CC[C@H](C)[C@H](NC(=O)[C@H](CCCNC(=N)N)NC(=O)[C@@H](N)Cc1ccc(O)cc1)C(=O)N[C@@H](C)C(=O)N[C@@H](CCCCN)C(=O)N[C@@H](Cc1ccccc1)C(=O)N[C@@H](CC(C)C)C(=O)N[C@@H](Cc1ccccc1)C(=O)N[C@@H](CCSC)C(=O)O [3102.0708] (H-YRIAKFLFM-OH) | 17
CC[C@H](C)[C@H](NC(=O)[C@@H]1CCCN1C(=O)[C@H](CCCCN)NC(=O)[C@@H](NC(=O)[C@H](CCCNC(=N)N)NC(=O)[C@H](CC(N)=O)NC(=O)[C@H](CCCNC(=N)N)NC(=O)[C@H](CCSC)NC(=O)[C@@H](N)CCSC)[C@@H](C)O)C(=O)O [3102.0668] (H-MMRNRTKPI-OH) | 1.5
CC[C@H](C)[C@H](NC(=O)[C@H](CC(=O)O)NC(=O)[C@H](CC(C)C)NC(=O)[C@H](CCCCN)NC(=O)[C@H](CCCCN)NC(=O)[C@H](CCCNC(=N)N)NC(=O)[C@H](CCCCN)NC(=O)[C@@H](NC(=O)[C@@H](N)Cc1ccccc1)C(C)C)C(=O)O [3102.0707] (H-FVKRKKLDI-OH) | 3
CC(C)C[C@H](NC(=O)[C@@H](N)CC(=O)O)C(=O)N[C@@H](CCCNC(=N)N)C(=O)N[C@@H](CCCNC(=N)N)C(=O)N[C@@H](CCCNC(=N)N)C(=O)N[C@@H](Cc1ccccc1)C(=O)N[C@@H](CC(=O)O)C(=O)N[C@H](C(=O)N[C@@H](Cc1ccccc1)C(=O)O)[C@@H](C)O [3102.0667] (H-DLRRRFDTF-OH) | 1.6
CC[C@H](C)[C@H](NC(=O)[C@H](Cc1c[nH]cn1)NC(=O)[C@H](Cc1ccccc1)NC(=O)[C@H](CCCCN)NC(=O)[C@H](CC(C)C)NC(=O)[C@H](CCCNC(=N)N)NC(=O)[C@H](CS)NC(=O)[C@@H](N)Cc1c[nH]c2ccccc12)C(=O)N[C@H](C(=O)O)C(C)C [3102.0584] (H-WCRLKFHIV-OH) | 82
CSCC[C@H](NC(=O)[C@H](CO)NC(=O)[C@H](Cc1c[nH]cn1)NC(=O)[C@H](CCCCN)NC(=O)[C@@H](NC(=O)[C@H](Cc1ccc(O)cc1)NC(=O)[C@H](CCSC)NC(=O)[C@@H](N)Cc1ccccc1)[C@@H](C)O)C(=O)N[C@@H](CC(C)C)C(=O)O [3102.0684] (H-FMYTKHSML-OH) | 0.2
CC[C@H](C)[C@H](NC(=O)[C@@H](NC(=O)[C@H](Cc1ccccc1)NC(=O)[C@H](CCCCN)NC(=O)[C@H](CCC(N)=O)NC(=O)[C@H](CCSC)NC(=O)[C@H](CC(=O)O)NC(=O)[C@@H](N)CO)[C@@H](C)O)C(=O)N[C@@H](CC(C)C)C(=O)O [3102.0699] (H-SDMQKFTIL-OH) | 41
CC[C@H](C)[C@H](NC(=O)[C@@H](NC(=O)[C@H](CS)NC(=O)[C@@H](NC(=O)[C@H](CCCNC(=N)N)NC(=O)[C@H](CO)NC(=O)[C@H](CCCCN)NC(=O)[C@H](CO)NC(=O)[C@@H](N)CC(N)=O)[C@@H](C)CC)C(C)C)C(=O)O [3102.0966] (H-NSKSRICVI-OH) | 11
CSCC[C@H](NC(=O)[C@H](CS)NC(=O)[C@H](CCCNC(=N)N)NC(=O)[C@H](Cc1ccc(O)cc1)NC(=O)[C@H](CCCCN)NC(=O)[C@H](CCCCN)NC(=O)[C@@H](N)CC(N)=O)C(=O)N[C@@H](C)C(=O)N[C@@H](CC(C)C)C(=O)O [3102.0619] (H-NKKYRCMAL-OH) | 1.9
CC[C@H](C)[C@H](NC(=O)[C@H](CO)NC(=O)[C@H](Cc1ccccc1)NC(=O)[C@H](CC(C)C)NC(=O)[C@@H](NC(=O)[C@H](CCCNC(=N)N)NC(=O)[C@H](CC(C)C)NC(=O)[C@@H](N)Cc1c[nH]cn1)C(C)C)C(=O)N[C@@H](Cc1ccccc1)C(=O)O [3102.0612] (H-HLRVLFSIF-OH) | 4.7
CC(C)C[C@H](NC(=O)[C@H](CC(N)=O)NC(=O)[C@@H](NC(=O)[C@H](CC(C)C)NC(=O)[C@H](CCCNC(=N)N)NC(=O)[C@H](CCC(N)=O)NC(=O)[C@H](CCCCN)NC(=O)[C@H](CC(C)C)NC(=O)[C@@H](N)[C@@H](C)O)[C@@H](C)O)C(=O)O [3102.0747] (H-TLKQRLTNL-OH) | 1.7
CC[C@H](C)[C@H](NC(=O)[C@H](CC(N)=O)NC(=O)[C@@H](N)CCCNC(=N)N)C(=O)N[C@@H](C)C(=O)N[C@@H](CCCNC(=N)N)C(=O)N[C@@H](Cc1c[nH]cn1)C(=O)N[C@@H](CC(C)C)C(=O)N[C@@H](C)C(=O)N[C@@H](CC(C)C)C(=O)O [3102.0780] (H-RNIARHLAL-OH) | 3.2
CC[C@H](C)[C@H](NC(=O)[C@H](Cc1ccccc1)NC(=O)[C@H](Cc1ccccc1)NC(=O)[C@@H](N)CCSC)C(=O)N[C@@H](CCCNC(=N)N)C(=O)N[C@@H](Cc1ccccc1)C(=O)NCC(=O)N[C@@H](CCCCN)C(=O)N[C@@H](CCSC)C(=O)O [3102.0559] (H-MFFIRFGKM-OH) | 32
CC[C@H](C)[C@H](NC(=O)[C@H](CCC(N)=O)NC(=O)[C@H](CCC(=O)O)NC(=O)[C@H](CCC(N)=O)NC(=O)[C@H](CCCNC(=N)N)NC(=O)[C@H](CCCNC(=N)N)NC(=O)[C@H](CCSC)NC(=O)CNC(=O)[C@@H](N)CO)C(=O)O [3102.0733] (H-SGMRRQEQI-OH) | 17
CC[C@H](C)[C@H](NC(=O)[C@@H](NC(=O)[C@H](CO)NC(=O)[C@H](CCCNC(=N)N)NC(=O)[C@H](CCC(=O)O)NC(=O)[C@H](CCCCN)NC(=O)[C@H](CCSC)NC(=O)[C@@H](N)CCSC)[C@@H](C)O)C(=O)N[C@@H](CC(C)C)C(=O)O [3102.0596] (H-MMKERSTIL-OH) | 35
CC(C)C[C@H](NC(=O)[C@@H]1CCCN1C(=O)[C@H](CCCNC(=N)N)NC(=O)[C@H](Cc1ccccc1)NC(=O)[C@H](CCCCN)NC(=O)[C@H](CCCCN)NC(=O)[C@H](CCCNC(=N)N)NC(=O)[C@H](Cc1ccc(O)cc1)NC(=O)[C@@H](N)Cc1ccccc1)C(=O)O [3102.0608] (H-FYRKKFRPL-OH) | 0.088
